Test results reported in US20050101595A1, “N-containing cycloalkyl-substituted amino-thiazole derivatives and pharmaceutical compositions for inhibiting cell proliferation and methods for their use” (PFIZER INC., priority 2003, published 2005).
Structures can show the parent of a compound that is named as a salt. Where two headings read alike, the source gives them in different places.

Key:
[1] = target: CDK2/Cyclin A (Homo sapiens, UniProt P24941); experiment: Inhibition of CDK2/Cyclin A Retinoblastoma Kinase Activity; type: biochemical; conditions: for Ki: apparent Ki, CDK2/proteolyzed cyclin A, Rb fragment substrate, 25 μM ATP; for CDK2 % Inhibition At 0.03 μM: Table 2
Method in brief: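 Human CDK2, baculovirus/insect-cell expressed, complexed with proteolyzed cyclin A (10 nM or 19 nM CDK2) phosphorylates an Rb fragment with 25 μM [32P/33P]ATP at pH 7.4, 30° C, for 60 or 75 minutes under initial-rate conditions. Filter-captured radioactivity is read by phosphorimager; apparent Ki from competitive-inhibition fits.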

[2] = target: human CDK4 and genetically truncated (1-264) cyclin D3 (Homo sapiens, UniProt P11802); experiment: Inhibition of CDK4/Cyclin D Retinoblastoma Kinase Activity; type: biochemical; conditions: for Ki: apparent Ki, CDK4/truncated cyclin D3, Rb fragment substrate, 25 μM ATP
Method in brief: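 Read-out: 32P/33P incorporation into Rb fragment (386-928) captured on nitrocellulose, phosphorimager. Enzyme 5 nM CDK4/cyclin D3(1-264) from insect cells; ATP 25 μM, pH 7.4, 30 °C, 20 min (60 min for tight binders). Ki from competitive fits.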

[3] = tested on: HCT-116 cell line; experiment: Inhibition of cell growth, tetrazolium salt (MTT) assay; type: cell-based; conditions: for IC50: Homo sapiens, HCT-116, 120 h, MTT, three to five days, read-out: HCT-116 IC50; for HCT-116 % Inhibition at 0.25 μM: 0.25 μM compound
Method in brief: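 Cells in McCoy's 5A medium were left 4 h, then given graded compound concentrations in 0.5% (v/v) DMSO and incubated three to five days at 37° C (5% CO2). MTT was added to 0.2 mg/mL for 4 h more; DMSO-solubilized formazan was read at 540 nm against 0.5% DMSO-only controls.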

[4] = 0.1 μM compound, HCT-116, Table 3

Sequence of human CDK4 and genetically truncated (1-264) cyclin D3 (P11802 whole entry, the tested form may be a part): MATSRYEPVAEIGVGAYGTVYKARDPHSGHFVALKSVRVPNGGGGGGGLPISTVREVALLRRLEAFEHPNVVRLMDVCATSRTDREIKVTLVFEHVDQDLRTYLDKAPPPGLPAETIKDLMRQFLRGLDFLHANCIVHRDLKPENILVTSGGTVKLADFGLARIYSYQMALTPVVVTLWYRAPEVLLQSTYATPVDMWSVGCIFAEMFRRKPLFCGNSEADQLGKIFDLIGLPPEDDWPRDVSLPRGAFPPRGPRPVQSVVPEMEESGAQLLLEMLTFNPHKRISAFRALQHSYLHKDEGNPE
Sequence of human CDK4 and genetically truncated (1-264) cyclin D3 (P30281 1-264 partner): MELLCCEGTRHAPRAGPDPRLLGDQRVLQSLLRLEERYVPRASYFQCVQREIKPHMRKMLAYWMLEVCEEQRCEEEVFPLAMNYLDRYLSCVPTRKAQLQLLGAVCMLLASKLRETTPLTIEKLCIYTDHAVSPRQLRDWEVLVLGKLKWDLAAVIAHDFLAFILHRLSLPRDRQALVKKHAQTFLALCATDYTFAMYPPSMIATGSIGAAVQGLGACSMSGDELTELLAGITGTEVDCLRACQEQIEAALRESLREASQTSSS

With `CCCCCOc1ccc(C(=O)N2CCC(Nc3nc(N)c(C(=O)c4c(F)cccc4F)s3)CC2)cc1` [Example R14] the “CDK2 % Inhibition at 0.03 μM” value ([1]; at 0.03 μM) was 19%, the “CDK4 % Inhibition at 0.03 μM” value ([2]; at 0.03 μM) was 49% and the “HCT-116 % Inhibition at 0.1 μM” value ([3]; HCT-116 cells, at 0.1 μM) was 0%. The “HCT-116 5 Inhibition at 0.25 μM” value ([3]; HCT-116 cells) was 46.
In the case of `Nc1nc(NC2CCN(S(=O)(=O)c3ccc(CN4CCCC4)cc3)CC2)sc1C(=O)c1c(F)cccc1F` [Example J6, 1-{4-Amino-2-[1-(4-pyrrolidin-1-ylmethyl-benzenesulfonyl)-piperidin-4-ylamino]-thiazol-5-yl}-1-(2,6-difluoro-phenyl)-methanone Hydrochloride], the Ki [1] is reported as less than 1 nM, the Ki [2] is reported as 0.58 nM and the IC50 ([3]; first HCT-116 column (c4)) is reported as 390 nM. The IC50 ([3]; second HCT-116 column (c5)) was 2000 nM.
For `COC(=O)c1csc(S(=O)(=O)N2CCC(Nc3nc(N)c(C(=O)c4c(F)cccc4F)s3)CC2)c1OC` [Example P70], the “CDK2 % Inhibition at 0.03 μM” value ([1]; 0.03 μM compound, Table 3) was 37%, the “CDK4 % Inhibition at 0.03 μM” value ([2]; 0.03 μM compound, Table 3) was 60% and the “HCT-116 % Inhibition at 0.1 μM” value [3, 4] was 14%. For the same compound, the “HCT-116 % Inhibition at 0.25 μM” value ([3]; HCT-116, Table 3) was 27%.
`CN(CCS(=O)(=O)N1CCC(Nc2nc(N)c(C(=O)c3c(F)cccc3F)s2)CC1)Cc1ccccc1` [Example K39, (4-Amino-2-{1-[2-(benzyl-methyl-amino)-ethanesulfonyl]-piperidin-4-ylamino}-thiazol-5-yl)-(2,6-difluoro-phenyl)-methanone] was tested, and the Ki [1] was 1.4 nM, the Ki [2] was 1.8 nM and the IC50 ([3]; first HCT-116 column (c4)) was 44 nM. It also gave an IC50 ([3]; second HCT-116 column (c5)) of 170 nM.
`Nc1nc(NC2CCN(S(=O)(=O)c3ccc(C(F)(F)F)cc3)CC2)sc1C(=O)c1c(F)cccc1F` [Example P33] was tested, and the “CDK2 % Inhibition at 0.03 μM” value ([1]; 0.03 μM compound, Table 3) was 56%, the “CDK4 % Inhibition at 0.03 μM” value ([2]; 0.03 μM compound, Table 3) was 59% and the “HCT-116 % Inhibition at 0.1 μM” value [3, 4] was 6%. The “HCT-116 % Inhibition at 0.25 μM” value ([3]; HCT-116, Table 3) was 32%.
With `Nc1nc(NC2CCN(Cc3ccncc3)CC2)sc1C(=O)c1c(F)cccc1F` [Example M2, 1-[4-Amino-2-(1-pyridin-4-ylmethyl-piperidin-4-ylamino)-thiazol-5-yl]-1-(2,6-difluoro-phenyl)-methanone.] the Ki [1] was 433 nM, the Ki [2] was 33.5 nM and the IC50 ([3]; first HCT-116 column (c4)) was 2100 nM. The IC50 ([3]; second HCT-116 column (c5)) was 5000 nM.
For `COc1ccc(C(=O)N2CCC(Nc3nc(N)c(C(=O)c4c(F)cccc4F)s3)CC2)cc1` [Example C2, {4-Amino-2-[1-(4-methoxy-benzoyl)-piperidin-4-ylamino]-thiazol-5-yl}-(2,6-difluoro-phenyl)-methanone], the Ki [1] was 65 nM, the Ki [2] was 9.6 nM and the IC50 ([3]; first HCT-116 column (c4)) was 770 nM. The IC50 ([3]; second HCT-116 column (c5)) was 1900 nM.
For `Nc1nc(NC2CCN(C(=O)CC3CCCC3)CC2)sc1C(=O)c1c(F)cccc1F` [Example R96], the “CDK2 % Inhibition at 0.03 μM” value ([1]; at 0.03 μM) was −20%, the “CDK4 % Inhibition at 0.03 μM” value ([2]; at 0.03 μM) was −18% and the “HCT-116 % Inhibition at 0.1 μM” value ([3]; HCT-116 cells, at 0.1 μM) was 2%. For the same compound, the “HCT-116 5 Inhibition at 0.25 μM” value ([3]; HCT-116 cells) was 36.
`Nc1nc(NC2CCN(S(=O)(=O)CCCN3CCc4ccccc4C3)CC2)sc1C(=O)c1c(F)cccc1F` [Example K5, 1-(4-Amino-2-{1-[3-(3,4-dihydro-1H-isoquinolin-2-yl)propane-1-sulfonyl]-piperidin-4-ylamino}-thiazol-5-yl)-1-(2,6-difluoro-phenyl)-methanone.] gave a Ki [1] of 1 nM, a Ki [2] of 1.5 nM and an IC50 ([3]; first HCT-116 column (c4)) of 140 nM. The IC50 ([3]; second HCT-116 column (c5)) was 580 nM.
`CC[C@H](NCCS(=O)(=O)N1CCC(Nc2nc(N)c(C(=O)c3c(F)cccc3F)s2)CC1)c1ccccc1` [Example K42, (4-Amino-2-{1-[2-(1S-phenyl-propylamino)-ethanesulfonyl]-piperidin-4-ylamino}-thiazol-5-yl)-(2,6-difluoro-phenyl)-methanone] showed a Ki [1] of 1 nM, a Ki [2] of 1.9 nM and an IC50 ([3]; first HCT-116 column (c4)) of 50 nM. It also gave an IC50 ([3]; second HCT-116 column (c5)) of 150 nM.
In the case of `CC(=O)Nc1nc(C)c(S(=O)(=O)N2CCC(Nc3nc(N)c(C(=O)c4c(F)cccc4F)s3)CC2)s1` [Example P4], the “CDK2 % Inhibition at 0.03 μM” value ([1]; 0.03 μM compound, Table 3) is reported as 15%, the “CDK4 % Inhibition at 0.03 μM” value ([2]; 0.03 μM compound, Table 3) is reported as 32% and the “HCT-116 % Inhibition at 0.1 μM” value [3, 4] is reported as 18%. For the same compound, the “HCT-116 % Inhibition at 0.25 μM” value ([3]; HCT-116, Table 3) was 24%.
For `CC(CN(C)C)Oc1ccc(S(=O)(=O)N2CCC(Nc3nc(N)c(C(=O)c4c(F)cccc4F)s3)CC2)cn1` (racemic) [Example H13, 1-(4-Amino-2-{1-[6-(2-dimethylamino-1RS-methyl-ethoxy)-pyridine-3-sulfonyl]-piperidin-4-ylamino}-thiazol-5-yl)-1-(2,6-fifluoro-phenyl)-methanone Dihydrochloride], the Ki [1] was 1.1 nM, the Ki [2] was 0.65 nM and the IC50 ([3]; first HCT-116 column (c4)) was 90 nM. The IC50 ([3]; second HCT-116 column (c5)) was 400 nM.
For `Nc1nc(NC2CCN(C(=O)c3ccc4c(c3)C(=O)c3ccccc3C4=O)CC2)sc1C(=O)c1c(F)cccc1F` [Example R34], the “CDK2 % Inhibition at 0.03 μM” value ([1]; at 0.03 μM) was 35%, the “CDK4 % Inhibition at 0.03 μM” value ([2]; at 0.03 μM) was 60% and the “HCT-116 % Inhibition at 0.1 μM” value ([3]; HCT-116 cells, at 0.1 μM) was 0%. For the same compound, the “HCT-116 5 Inhibition at 0.25 μM” value ([3]; HCT-116 cells) was 55.
With `Nc1nc(NC2CCN(C(=O)/C=C/c3ccncc3)CC2)sc1C(=O)c1c(F)cccc1F` [Example D6, 1-{[4-Amino-5-(2,6-difluoro-benzoyl)-thiazol-2-ylamino]-piperidin-1-yl)3-pyridin-4-yl-prop-2(E)-enone] the Ki [1] was 160 nM, the Ki [2] was 67 nM and the IC50 ([3]; first HCT-116 column (c4)) was 1900 nM. For the same compound, the IC50 ([3]; second HCT-116 column (c5)) was 3900 nM.
In the case of `CN1CCCC(COc2ccc(S(=O)(=O)N3CCC(Nc4nc(N)c(C(=O)c5c(F)cccc5F)s4)CC3)cn2)C1` (stereo not shown) [Example H7, 1-[4-Amino-2-{1-[6-(1-methyl-piperidin-3RS-ylmethoxy)-pyridine-3-sulfonyl]-piperidin-4-ylamino}-thiazol-5-yl)-1-(2,6-difluoro-phenyl)-methanone Trifluoroacetic Acid Salt], the Ki [1] is reported as 0.8 nM, the Ki [2] is reported as 0.21 nM and the IC50 ([3]; first HCT-116 column (c4)) is reported as 40 nM. The IC50 ([3]; second HCT-116 column (c5)) was 250 nM.
With `Nc1nc(NC2CCN(C(=O)Nc3cccc(Br)c3)CC2)sc1C(=O)c1c(F)cccc1F` [Example O12] the “CDK2 % Inhibition At 0.03 μM” value ([1]; 0.03 μM compound) was 31%, the “CDK4 % Inhibition at 0.03 μM” value ([2]; 0.03 μM compound, Table 2) was 3% and the “HCT-116 % Inhibition at 0.25 μM” value ([3]; HCT-116, Table 2) was 25%.
With `CN1CC[C@@H](Oc2ccc(S(=O)(=O)N3CCC(Nc4nc(N)c(C(=O)c5c(F)cccc5F)s4)CC3)cn2)C1` [Example H27, (4-Amino-2-{1-[6-(1-methyl-pyrrolidin-3R-yloxy)-pyridine-3-sulfonyl]-piperidin-4-ylamino}-thiazol-5-yl)-(2,6-difluoro-phenyl)-methanone Hydrochloride] the Ki [1] was 0.35 nM, the Ki [2] was 0.97 nM and the IC50 ([3]; first HCT-116 column (c4)) was 80 nM. For the same compound, the IC50 ([3]; second HCT-116 column (c5)) was 290 nM.
For `CCOC(=O)C(Cc1ccccc1)NC(=O)N1CCC(Nc2nc(N)c(C(=O)c3c(F)cccc3F)s2)CC1` (stereo not shown) [Example O75], the “CDK2 % Inhibition At 0.03 μM” value ([1]; 0.03 μM compound) was 25%, the “CDK4 % Inhibition at 0.03 μM” value ([2]; 0.03 μM compound, Table 2) was 10% and the “HCT-116 % Inhibition at 0.25 μM” value ([3]; HCT-116, Table 2) was 41%.
For `Cc1cc(C)cc(NC(=O)N2CCC(Nc3nc(N)c(C(=O)c4c(F)cccc4F)s3)CC2)c1` [Example O49], the “CDK2 % Inhibition At 0.03 μM” value ([1]; 0.03 μM compound) was 33%, the “CDK4 % Inhibition at 0.03 μM” value ([2]; 0.03 μM compound, Table 2) was −1% and the “HCT-116 % Inhibition at 0.25 μM” value ([3]; HCT-116, Table 2) was 20%.
`CC(C)(C)c1cc(C(=O)N2CCC(Nc3nc(N)c(C(=O)c4c(F)cccc4F)s3)CC2)n(Cc2ccccc2)n1` [Example R58] was tested, and the “CDK2 % Inhibition at 0.03 μM” value ([1]; at 0.03 μM) was 41%, the “CDK4 % Inhibition at 0.03 μM” value ([2]; at 0.03 μM) was 72% and the “HCT-116 % Inhibition at 0.1 μM” value ([3]; HCT-116 cells, at 0.1 μM) was 5%. The “HCT-116 5 Inhibition at 0.25 μM” value ([3]; HCT-116 cells) was 44.
`CCCCCc1ccc(C(=O)N2CCC(Nc3nc(N)c(C(=O)c4c(F)cccc4F)s3)CC2)cc1` [Example Q37] was tested, and the “CDK2 % Inhibition at 0.03 μM” value ([1]; 0.03 μM compound, Table 4) was 12%, the “CDK4 % Inhibition at 0.03 μM” value ([2]; 0.03 μM compound, Table 4) was 45% and the “HCT-116 % Inhibition at 0.1 μM” value ([3]; 0.1 μM compound, HCT-116, Table 4) was 0%. The “HCT-116 % Inhibition at 0.25 μM” value ([3]; HCT-116, Table 4) was 31%.
In the case of `Nc1nc(NC2CCN(C(=O)CC3C=CCC3)CC2)sc1C(=O)c1c(F)cccc1F` (stereo not shown) [Example R98], the “CDK2 % Inhibition at 0.03 μM” value ([1]; at 0.03 μM) is reported as 8%, the “CDK4 % Inhibition at 0.03 μM” value ([2]; at 0.03 μM) is reported as 11% and the “HCT-116 % Inhibition at 0.1 μM” value ([3]; HCT-116 cells, at 0.1 μM) is reported as 0%. For the same compound, the “HCT-116 5 Inhibition at 0.25 μM” value ([3]; HCT-116 cells) was 44.
